Laboratory results taken from patent US9273057B2 (Bristol-Myers Squibb Company, priority 2012, dated 2016).
Counter-ions that a name gives are not always drawn.

Biological target: CK2A1 (CK2α/β) (Homo sapiens, UniProt P68400)
Assay: CK2 kinase assay, CK2A1 (CK2α/β)
Type: biochemical
Settings: Table A; read-out: CK2A1 (CK2α/β) (IC50)

CK2A1 (CK2α/β), sequence (P68400 whole entry, species assumed): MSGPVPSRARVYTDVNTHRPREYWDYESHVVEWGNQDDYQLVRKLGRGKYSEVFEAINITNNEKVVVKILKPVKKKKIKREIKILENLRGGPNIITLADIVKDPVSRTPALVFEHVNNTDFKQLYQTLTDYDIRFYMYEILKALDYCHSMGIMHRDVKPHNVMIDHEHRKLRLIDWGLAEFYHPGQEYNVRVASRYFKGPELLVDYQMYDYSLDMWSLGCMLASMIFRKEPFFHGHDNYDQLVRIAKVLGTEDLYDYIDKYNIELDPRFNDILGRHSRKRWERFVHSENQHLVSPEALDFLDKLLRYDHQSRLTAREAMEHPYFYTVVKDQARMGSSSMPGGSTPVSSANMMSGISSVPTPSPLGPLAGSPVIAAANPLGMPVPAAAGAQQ
CK2A1 (CK2α/β), sequence (P67870 whole entry partner, species assumed): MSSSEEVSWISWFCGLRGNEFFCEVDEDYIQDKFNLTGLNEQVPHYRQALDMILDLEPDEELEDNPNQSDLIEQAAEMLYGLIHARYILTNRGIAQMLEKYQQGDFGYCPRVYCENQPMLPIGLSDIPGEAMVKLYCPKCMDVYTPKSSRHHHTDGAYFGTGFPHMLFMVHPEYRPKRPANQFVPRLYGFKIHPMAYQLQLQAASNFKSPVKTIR

IC50 | SMILES
6.61 nM | CC(O)CN1CC2(CCN(c3cc(C#N)cc(Nc4nc(NC5CC5)c5ncc(C#N)n5n4)c3Cl)CC2)C1 (racemic) [Example 797, (+/−)-2-((2-chloro-5-cyano-3-(2-(2-hydroxypropyl)-2,7-diazaspiro[3.5]nonan-7-yl)phenyl)amino)-4-(cyclopropylamino)imidazo[2,1-f][1,2,4]triazine-7-carbonitrile]
0.37 nM | CN(C)C(=O)C1CN(c2cc(C#N)cc(Nc3nc(NC4CC4)c4ncc(C#N)n4n3)c2Cl)CCN1CC(O)CF (single isomer, unassigned) [Example 315, (+/−) 4-(2-chloro-5-cyano-3-((7-cyano-4-(cyclopropylamino)imidazo [2,1-f][1,2,4]triazin-2-yl)amino)phenyl)-1-(3-fluoro-2-hydroxypropyl)-N,N-dimethyl-2-piperazinecarboxamide]
1.87 nM | CN(C)C(=O)C1CN(c2cc(C#N)cc(Nc3nc(NC4CC4)c4ncc(C#N)n4n3)c2Cl)CCN1CC(O)CF (single isomer, unassigned) [Example 316, (+/−) 4-(2-chloro-5-cyano-3-((7-cyano-4-(cyclopropylamino)imidazo [2,1-f][1,2,4]triazin-2-yl)amino)phenyl)-1-(3-fluoro-2-hydroxypropyl)-N,N-dimethyl-2-piperazinecarboxamide]
1.48 nM | N#Cc1cc(Nc2nc(NC3CC3)c3ncc(C#N)n3n2)c(Cl)c(C2CCN(C3CCC3O)CC2)c1 (single isomer, unassigned) [Example 646, Cis and trans 2-((2-chloro-5-cyano-3-(1-(2-hydroxycyclobutyl)piperidin-4-yl)phenyl)amino)-4-(cyclopropylamino)imidazo[2,1-f][1,2,4]triazine-7-carbonitrile]
1.46 nM | N#Cc1cc(Nc2nc(NC3CC3)c3ncc(C#N)n3n2)c(Cl)c([C@H]2CCC[C@@H](N3CC(O)C3)C2)c1 (single isomer, unassigned) [Example 731]
6.07 nM | CC(CC(C)c1cc(Cl)c(Nc2nc(NC3CC3)c3ncc(C#N)n3n2)cc1C#N)NCCC(F)(F)F (single isomer, unassigned) [Example 734, 2-[(2-chloro-5-cyano-4-{4-[(3,3,3-trifluoropropyl)amino]pentan-2-yl}phenyl)amino]-4-(cyclopropylamino) imidazo[2,1-f][1,2,4]triazine-7-carbonitrile]
0.49 nM | COC(=O)N[C@H]1CN(C2CN(c3cc(C#N)cc(Nc4nc(NC5CC5)c5ncc(C#N)n5n4)c3Cl)C2)CC1OC (stereo in doubt) [Example 298, methyl ((3S,4R)-1-(1-(2-chloro-5-cyano-3-((7-cyano-4-(cyclopropylamino)imidazo[2,1-f][1,2,4]triazin-2-yl)amino)phenyl)-3-azetidinyl)-4-methoxy-3-pyrrolidinyl)carbamate]
0.74 nM | CCNc1nc(Nc2cc(C#N)cc(N3CC(C)[C@H](NC(=O)OC)C3)c2Cl)nn2c(C#N)cnc12 (stereo in doubt) [Example 336, methyl ((3S,4R)-1-(2-chloro-5-cyano-3-((7-cyano-4-(ethylamino)imidazo[2,1-f][1,2,4]triazin-2-yl)amino)phenyl)-4-methyl-3-pyrrolidinyl)carbamate]
1.28 nM | CCNc1nc(Nc2cc(C#N)cc(N3CCN(CC(C)O)CC3)c2Cl)nn2c(C#N)cnc12 (stereo in doubt) [Example 429, 2-((2-chloro-5-cyano-3-(4-((2R)-2-hydroxypropyl)-1-piperazinyl)phenyl)amino)-4-(ethylamino)imidazo[2,1-f][1,2,4]triazine-7-carbonitrile]

The next lines start with the molecule.

SMILES | IC50
N#Cc1cc(Nc2nc(NC3CC3)c3ncc(C#N)n3n2)c(Cl)c(N2CCN3C(CCS3(=O)=O)C2)c1 (racemic) [Example 788, (+/−)-2-((2-chloro-5-cyano-3-(1,1-dioxidotetrahydro-2H-isothiazolo[2,3-a]pyrazin-5 (3H)-yl)phenyl)amino)-4-(cyclopropylamino)imidazo[2,1-f][1,2,4]triazine-7-carbonitrile] | 0.62 nM
N#Cc1cc(Nc2nc(NC3CC3)c3ncc(C#N)n3n2)c(Cl)c(N2CCC3(CC2)CN(CC(O)CF)C3)c1 (racemic) [Example 796, (+/−)-2-((2-chloro-5-cyano-3-(2-(3-fluoro-2-hydroxypropyl)-2,7-diazaspiro[3.5]nonan-7-yl)phenyl)amino)-4-(cyclopropylamino)imidazo[2,1-f][1,2,4]triazine-7-carbonitrile] | 1.69 nM
CC(C(N)=O)N1CC2(CCN(c3cc(C#N)cc(Nc4nc(NC5CC5)c5ncc(C#N)n5n4)c3Cl)CC2)C1 (racemic) [Example 802, (+/−)-2-(7-(2-chloro-5-cyano-3-((7-cyano-4-(cyclopropylamino)imidazo[2,1-f][1,2,4]triazin-2-yl)amino)phenyl)-2,7-diazaspiro[3.5]nonan-2-yl)propanamide] | 6.9 nM
N#Cc1cc(Nc2nc(NC3CC3)c3ncc(C#N)n3n2)c(Cl)c(N2CC3(CCN(CC(O)CF)CC3)C2)c1 (racemic) [Example 807, (+/−)-2-((2-chloro-5-cyano-3-(7-(3-fluoro-2-hydroxypropyl)-2,7-diazaspiro[3.5]nonan-2-yl)phenyl)amino)-4-(cyclopropylamino)imidazo[2,1-f][1,2,4]triazine-7-carbonitrile] | 0.73 nM
CCNc1nc(Nc2ccc3c(c2)c(C#N)cn3C2CCN(CC(O)CF)CC2)nn2c(C#N)cnc12 (racemic) [Example 824, (+/−)-2-((3-cyano-1-(1-(3-fluoro-2-hydroxypropyl)piperidin-4-yl)-1H-indol-5-yl)amino)-4-(ethylamino)imidazo[2,1-f][1,2,4]triazine-7-carbonitrile] | 0.8 nM
CCNc1nc(Nc2ccc3c(c2)c(C#N)cn3C2CCN(C3COCC3O)CC2)nn2c(C#N)cnc12 (racemic) [Example 825, (+/−)-2-((3-cyano-1-(1-(4-hydroxytetrahydrofuran-3-yl)piperidin-4-yl)-1H-indol-5-yl)amino)-4-(ethylamino)imidazo[2,1-f][1,2,4]triazine-7-carbonitrile] | 0.3 nM
CCNc1nc(Nc2cc(C#N)cc(N3CC[C@@H]4[C@@H](C3)OC(=O)N4C3COC3)c2Cl)nn2c(C#N)cnc12 (racemic) [Example 838, (+/−)-2-((2-chloro-5-cyano-3-((3aR,7aR)-1-(oxetan-3-yl)-2-oxohexahydrooxazolo[5,4-c]pyridin-5(2H)-yl)phenyl)amino)-4-(ethylamino)imidazo[2,1-f][1,2,4]triazine-7-carbonitrile] | 0.54 nM
N#Cc1cc(Nc2nc(NC3CC3)c3ncc(C#N)n3n2)c(Cl)c(C2CCN(C3CCC3O)CC2)c1 (single isomer, unassigned) [Example 645, Cis and trans 2-((2-chloro-5-cyano-3-(1-(2-hydroxycyclobutyl)piperidin-4-yl)phenyl)amino)-4-(cyclopropylamino)imidazo[2,1-f][1,2,4]triazine-7-carbonitrile] | 1.75 nM
N#Cc1cc(Nc2nc(NC3CC3)c3ncc(C#N)n3n2)c(Cl)c([C@H]2CCC[C@@H](N3CC(F)C3)C2)c1 (single isomer, unassigned) [Example 729] | 1.68 nM
N#Cc1cc(Nc2nc(NC3CC3)c3ncc(C#N)n3n2)c(Cl)c([C@H]2CCC[C@@H](N3CC(O)C3)C2)c1 (single isomer, unassigned) [Example 730] | 1.22 nM
CC(CC(C)c1cc(Cl)c(Nc2nc(NC3CC3)c3ncc(C#N)n3n2)cc1C#N)NCCC(F)(F)F (single isomer, unassigned) [Example 735, 2-[(2-chloro-5-cyano-4-{4-[(3,3,3-trifluoropropyl)amino]pentan-2-yl}phenyl)amino]-4-(cyclopropylamino)imidazo [2,1-f][1,2,4]triazine-7-carbonitril] | 4.37 nM
COC(=O)N[C@H]1CCN(c2cc(C#N)cc(Nc3nc(NC4CC4)c4ncc(C#N)n4n3)c2Cl)C[C@@H]1NC1COC1 (single isomer, unassigned) [Example 744] | 1.12 nM
COC(=O)N[C@H]1CCN(c2cc(C#N)cc(Nc3nc(NC4CC4)c4ncc(C#N)n4n3)c2Cl)C[C@H]1NC1COC1 (single isomer, unassigned) [Example 745] | 1.24 nM
CCNc1nc(-n2cc([C@H]3C[C@@H]3CN(C)C)c3ccc(C#N)cc32)nn2c(C#N)cnc12 (single isomer, unassigned) [Example 774] | 4.05 nM
CCNc1nc(-n2cc([C@@H]3C[C@H]3CN(C)C)c3ccc(C#N)cc32)nn2c(C#N)cnc12 (single isomer, unassigned) [Example 775] | 2.35 nM
CCNc1nc(Nc2cc(C#N)cc(N3CC[C@@H]4[C@@H](C3)OC(=O)N4[C@H]3CCOC3)c2Cl)nn2c(C#N)cnc12 (single isomer, unassigned) [Example 841] | 2.31 nM
CCNc1nc(Nc2cc(C#N)cc(N3CC[C@@H]4[C@@H](C3)OC(=O)N4[C@H]3CCOC3)c2Cl)nn2c(C#N)cnc12 (single isomer, unassigned) [Example 842] | 2.05 nM
CCNc1nc(Nc2cc(C#N)cc(N3CC[C@@H]4[C@@H](C3)OC(=O)N4[C@H]3CCOC3)c2Cl)nn2c(C#N)cnc12 (single isomer, unassigned) [Example 843] | 2.16 nM
CCNc1nc(Nc2cc(C#N)cc(N3CC[C@@H]4[C@@H](C3)OC(=O)N4[C@H]3CCOC3)c2Cl)nn2c(C#N)cnc12 (single isomer, unassigned) [Example 844] | 1.83 nM
CO[C@@H]1CN(c2cc(C#N)cc(Nc3nc(NC4CC4)c4ncc(C#N)n4n3)c2Cl)CC1NC1COC1 (stereo in doubt) [Example 302, 2-((2-chloro-5-cyano-3-((3R,4S)-3-methoxy-4-(oxetan-3-ylamino)pyrrolidin-1-yl)phenyl)amino)-4-(cyclopropylamino)imidazo[2,1-f][1,2,4]triazine-7-carbonitrile, HCl] | 1.7 nM
N#Cc1cc(Nc2nc(NC3CC3)c3ncc(C#N)n3n2)c(Cl)c(N2CC[C@H]3[C@H](CCN3C3CS(=O)(=O)CC3O)C2)c1 (stereo in doubt) [Example 453, 2-((2-chloro-5-cyano-3-(1-((3S,4S)-4-hydroxy-1,1-dioxidotetrahydrothiophen-3-yl)hexahydro-1H-pyrrolo[3,2-c]pyridin-5(6H)-yl)phenyl)amino)-4-(cyclopropylamino)imidazo[2,1-f][1,2,4]triazine-7-carbonitrile] | 1.04 nM
